# Data taken from US10578610B2, “Peptide regulators of mitochondrial fusion and methods of use” (priority 2016, dated 2020).
# Square brackets hold non-standard residues; d marks the D form. Ends that are not written are not given here. pS = N[C@@H](COP(=O)(O)O)C(=O)O
# Legend:
# [1] = tested on: WT MEFs and Mfn2 KO MEFs; test: Parkin recruitment and mitophagy induced by mitochondrial depolarization, adenoviral expression; type: cell-based, murine; conditions: data not shown
# Method: (§1) MEFs or neurons were grown on chamber slides and infected with recombinant adenoviri for 48-72 hours unless otherwise indicated. MEFs were stained with MitoTracker Green (200 nM, Invitrogen M7514) and Blue Hoechst (10 mg/ml, Invitrogen H3570), with or without tetramethylrhodamine ethyl ester (TMRE; 200 nM, Invitrogen T-669). Neuronal mitochondria were labeled with adenoviral-expressed mitoGFP plus TMRE, or with adeno-mitoDsRed for time-lapse studies. Cover slips were loaded onto a chamber (Warner instrument, RC-40LP) in modified Krebs-Henseleit buffer (138 mM NaCl, 3.7 mM KCl, 1.2 mM KH2PO4, 15 mM Glucose, 20 mM HEPES and 1 mM CaCl2) at room temperature and visualized on a Nikon Ti Confocal microscope equipped with a 60×1.3 NA oil immersion objective. For mitophagy studies MEFs were stained with MitoTracker Green and infected with adeno-mcherry Parkin or stained with LysoTracker Deep Red (50 nM, Invitrogen L-7528); carbonylcyanide p-trifluoromethoxyphenylhydrazone (FCCP, 10 μM for 1 hour) was applied as a positive control. Mitochondrial fusion was measured at 2 and 6 hours after PEG-mediated cell fusion of MEFs treated 48 hours previously with adeno-mitoGFP or adeno-mitoDsRed (Chen et al., 2005, J Biol Chem, 280:26185-26192). Laser confocal fluorescence was excited with 561 nm (MitoTracker Green, GFP, FITC), 637 nm (TMRE, LysoTracker Red, mcherry-Parkin, MitoTracker Orange) or 408 nm (Blue Hoechst) laser diodes. Image analysis—Mitochondrial aspect ratio was calculated using automated edge detection and Image J software (Song et al., 2015, Cell Metab, 21:273-285). Mitochondrial depolarization was calculated as % of green mitochondria visualized on MitoTracker Green and TMRE merged images, expressed as green/(green+yellow mitochondria)×100. Parkin aggregation was calculated as % of cells with mitochondrial clumping of mcherry-Parkin (Song et al., 2015, Cell Metab, 21:273-285). Lysosomal engulfment of mitochondria was identified by colocalization of LysoTracker Red and MitoTracker Green (Song et al., 2015, Cell Metab, 21:273-285).
# Also studied were the effects of the adenoviral expression of WT Mfn2, HR1 peptide, adeno367-384 and its glycine variant and adeno398-418 and its glycine variant on Parkin recruitment and mitophagy induced by mitochondrial depolarization which are also impaced by the Mfn1 and Mfn2 proteins (Chen et al., 2013, Science, 340:471-475; Gong G. et al., 2015, Science, 350:aad2459). These studies were performed using WT MEFs and Mfn2 KO MEFs.
# [2] = tested on: murine embryonic fibroblasts (MEFs) expressing Mfn1 and/or Mfn2; test: Mitochondrial aspect ratio and polarization in MEFs infected with adenovirus expressing Mfn2 HR1 peptides; type: cell-based; conditions: adenoviral expression; for mitochondrial aspect ratio (length/width; an index of mitochondrial fusion): MOI 100, WT and Mfn2 null MEFs, vs Ad-Null/β-gal control; for mitochondrial aspect ratio (elongation/shortening) compared with adeno-HR1 or Mfn deletion: WT, Mfn1 KO, Mfn2 KO, Mfn1/Mfn2 DKO MEFs; for mitochondrial polarization status: WT MEFs, TMRE
# Method: The effect of each of the peptides listed in Table 1 on mitochondrial function was tested in a cell culture system using murine embryonic fibroblasts (MEFs) as described in Example 4. Wild-type MEFs express both Mfn1 and Mfn2. Also used were MEFs in which the Mfn2 gene was knocked out (MEF Mfn2 KO). The details of the experiments are provided in Example 3. In these experiments, the MEFs were infected with adenovirus (AV) engineered to express one of the peptides or full-length Mfn2 as a control. Mitochondrial fusion activity was measured using confocal microscopy and quantitative analysis of the mitochondrial aspect ratio which is a measurement of mitochondria length/width and is an accepted index of mitochondrial fusion. […] As with all confocal microscopic images provided herein, treated cells were stained to allow quantitative assessment of mitochondrial aspect ratio and polarization using methods routine in the art. In Examples 4-8, MitoTracker Green is used to stain the mitochondria to allow measurement of mitochondrial length and width to determine the aspect ratio. Red TMRE is used to measure mitochondrial polarization (membrane potential). Blue Hoechst stains nuclei.
# Empty adenovirus (Ad-CMV-Null; #1300) and adenoviri expressing β-Galactosidase (Ad-CMV-b-Gal; #1080) or Cre recombinase (Ad-CMV-iCre; #1045) were from Vector Biolabs. Adenoviral expression vectors for hMfn2 HR1 and the minipeptides and Gly or Pro mutants were generated and amplified using standard methods. Adenoviral vectors were added to MEFs at 50% confluence at an MOI of 100.
# as §1
# First, an adenovirus which recombinantly expressed the hMfn2 HR1 binding fragment (adeno HR1) was introduced into MEFs. It was reasoned that competition of the intra-molecular HR1-HR2 interaction by free HR1 fragment would increase mitochondrial fusion. […]
# [3] = tested on: WT MEFs; type: cell-based, murine; conditions: WT MEFs; varying concentrations / time course
# Method: as §1
# TAT47-57 is a well-characterized “carrier” peptide able to promote active cellular peptide uptake. Specifically, a linear peptide was constructed in which the hMfn2 modulatory peptide was linked by a peptide bond at its C-terminus to a Gly-Gly dipeptide linker whose C-terminus was linked by a peptide bond to the TAT47-57 peptide having the sequence YGRKKRRQRRR (SEQ ID NO:25). The resultant linear fusion-promoting peptide conjugate comprises the sequence […] (SEQ ID NO:23). The fusion-inhibiting linear peptide has the sequence […] (SEQ ID NO:24). Except for dose-response studies, stock concentrations of TAT-minipeptides in sterile water were applied to cultured MEFs at a dilution factor of 1:2000 to achieve final concentrations of 1 or 5 μM.
# The functional consequences of the Mfn2 HR1-derived peptides were defined after synthesizing them as C-terminal TAT47-57 conjugates to promote active cellular uptake. Mitochondrial fusion can be detected by mixing of organellar contents (Chen et al., 2005, J Biol Chem, 280:26185-26192). […] (FIG. 8A, scale bar is 20 microns). Mitochondrial aspect ratio changed in parallel with mitochondrial mixing (FIG. 8B).
# Experiments were performed with these shortened variants fused to a carrier peptide via a linker according to the methods described in Example 5 above. Wildtype MEFs were treated with varying concentrations of peptide fusion constructs described in Table 4 and mitochondrial aspect ratios determined. A dose response curve for TetherX-N and -C variants are shown in FIG. 17A (squares are data for TetherX-N and circles are for TetherX-C). The dose response curve for GoFuse-N and -C variants are shown in FIG. 17B (squares are for GoFuse-N and circles are for GoFuse-C).
# [4] = tested on: mitochondrial fusion; test: Alanine scanning of TetherX-1 and Go-Fuse peptides, effect on mitochondrial fusion in cells; type: cell-based; conditions: variants linked to TAT carrier via GG linker; compared with SEQ ID NO:48 or 50
# Method: Alanine scanning mutagenesis experiments were performed in order to identify amino acids critical for the function of the TetherX-1 and Go-Fuse peptides. Alanine was individually substituted for each amino acid in the Tetherx-1 and Go-Fuse peptides and the modified peptides, linked to the TAT carrier peptide via a GG linker, were administered to cells and the effect on mitochondrial fusion measured. Table 5 lists Go-Fuse variants which maintained fusion-promoting activity (activity similar to that of SEQ ID NO:48 or 50) while Table 6 lists variant Go-Fuse peptides in which substitutions had no effect (substitution of a non-critical amino acid).
Substance,Parkin recruitment and mitophagy induced by mitochondrial depolarization [1],mitochondrial aspect ratio (length/width; an index of mitochondrial fusion) [2],mitochondrial aspect ratio (effect of TAT fusion construct) [3],other results
FQNFERRFEECISQSAVKTKFEQHTVRAKQIAEAVRLIMDSLHMAAREQQVYCEEMREERQDRLKFIDKQLELLAQDYKLRIKQ [adeno-HR1],No significant effects,increased mitochondrial aspect ratio,–,mitochondrial aspect ratio (elongation/shortening) compared with adeno-HR1 or Mfn deletion [2]: altered mitochondrial aspect ratio
GELLAQDYKLRGGYGRKKRRQRRR [TetherX-C],–,–,provoked mitochondrial fragmentation,–
GIMD(p)SLHMAARGGYGRKKRRQRRR (GIMD[pS]LHMAARGGYGRKKRRQRRR) [SEQ ID NO:54],–,–,–,fusion-promoting activity (Mfn agonist activity) of Go-Fuse variants [4]: statistically active
GIMDSLHMAARGGYGRKKRRQRRR [GoFuse-C],–,–,induced mitochondrial elongation,–
"QDRLKFIDKQGELLAQDYKLR [adeno398-418Gly, Mfn2 HR1 minipeptide, expressed in cells from adenoviral vector]",did not adversely impact,potently suppressed fusion,–,mitochondrial polarization status [2]: did not adversely impact mitochondrial polarization status
"QDRLKFIDKQGGYGRKKRRQRRR [TetherX-N, N-terminal fragment of TetherX-1 fused to TAT carrier, as tested]",–,–,exhibited little activity,–
QDRLKFIDKQLELLAQDYKLR (listed as Homo sapiens) [adeno398-418],No significant effects,–,–,–
"QIAEAVRGGYGRKKRRQRRRR [GoFuse-N, N-terminal fragment of GoFuse-1 fused to TAT carrier, as tested]",–,–,lacked fusion-promoting activity,–
"QIAEAVRGIMDSLHMAAR [adeno367-384Gly, Mfn2 HR1 minipeptide, expressed in cells from adenoviral vector]",did not adversely impact,promoted fusion,–,mitochondrial polarization status [2]: did not adversely impact mitochondrial polarization status; mitochondrial aspect ratio (elongation/shortening) compared with adeno-HR1 or Mfn deletion [2]: comparable to that produced by adeno-HR1
QIAEAVRLIMDSLHMAAR (listed as Homo sapiens) [adeno367-384],No significant effects,–,–,–
"RQVSTAMAEEIRRLSVLVDDY (listed as Homo sapiens) [adeno428-448, non-HR1 control peptide]",–,did not affect mitochondrial fusion,–,–
